For 6 molecules, IC50 results are on record in PMC9603750, “Chalcone-Acridine Hybrid Suppresses Melanoma Cell Progression via G2/M Cell Cycle Arrest, DNA Damage, Apoptosis, and Modulation of MAP Kinases Activity” (International Journal of Molecular Sciences, 2022).

Common to all, as to assay: MTT assay (metabolic activity)
One assay relates to MCF-10A. In kind it is cell-based. Particulars: Homo sapiens; MCF-10A noncancer cell line, 72 h incubation. The protocol:
(§1) Cell lines A2058 (human melanoma lymph node metastasis, cat. 91100402) from ECACC (Public Health England, Salisbury, UK) and BLM (human melanoma lung metastasis a gift from prof. K. Smetana, Institute of Anatomy, Charles University in Prague) were cultured in a medium consisting of high glucose Dulbecco’s Modified Eagle’s Medium (DMEM) and sodium pyruvate (GE Healthcare, Piscataway, NJ, USA). The growth medium was supplemented with a 10% fetal bovine serum (FBS) and antibiotic/antimycotic solution 1 × HyClone™ (GE Healthcare, Chicago, IL, USA). The MCF-10A (human mammary epithelial cells) cell line was cultured in a medium consisting of high glucose Dulbecco’s Modified Eagle’s Medium F12 (DMEM/F12) (Biosera, Kansas City, MO, USA). The growth medium was supplemented with a 10% FBS, antibiotic/antimycotic solution 1 × HyClone™ (GE Healthcare, Chicago, IL, USA), epidermal growth factor (EGF) (20 ng/mL final), hydrocortisone (0.5 μg/mL final) and insulin (10 μg/mL final) (Sigma-Aldrich Chemie, Steinheim, Germany). Cells were cultured in humidified air at 37 °C with atmosphere containing 5% CO2.
(§2) The half-maximal inhibitory concentration values (IC50) and metabolism inhibition of tested synthetic chalcone derivatives were determined by MTT (3-(4,5-di-methylthiazol-2-yl)2,5-diphenyltetrazolium bromide) colorimetric assay (Sigma-Aldrich Chemie, Steinheim, Germany). Tested cell lines were seeded at a density of 5 × 10^3 cells/well in 96-well culture plates. After 24 h, the tested chalcones in concentrations of 100, 50 and 10 μmol/L were added and incubation proceeded for the next 72 h. In the next step, 10 μL of MTT (5 mg/mL) was added to each well containing cells and incubated for another 4 h at 37 °C during which MTT was metabolized to insoluble formazan in cells. After 4 h, 100 μL of a 10% sodium dodecyl sulphate (SDS) was added to each well and another 24 h were allowed for the formazan crystals to dissolve. The metabolic activity of cells was evaluated by measuring the absorbance at wavelength 540 nm using the automated Cytation™ 3 Cell Imaging Multi-Mode Reader (Biotek, Winooski, VT, USA). Three independent analyses were performed.

The test system of another assay is BLM. In kind it is cell-based, human. The note with it: Homo sapiens; BLM, 72 h incubation. The protocol: as §1, §2
The test system of another assay is A2058. The format is cell-based, human. Particulars: Homo sapiens; A2058, 72 h incubation. The protocol:
as §1, §2

Structures are written as SMILES.

Consider `COn1cc(/C=C/C(=O)c2ccccc2F)c2ccccc21` [ZKCH-11A, (2E)-1-(2-fluorophenyl)-3-(1-methoxy-1H-indol-3-yl)prop-2-en-1-one], for which the IC50 in the assay with MCF-10A is 85 ± 2.19 µM; in the assay on BLM, 35.3 ± 6.1 µM; with A2058 it was 31.9 ± 0.95 µM.
In the same order, the values of `CCOc1[nH]c2ccccc2c1/C=C/C(=O)c1ccccc1F` [ZKCH-11C, (2E)-3-(2-ethoxy-1H-indol-3-yl)-1-(2-fluorophenyl)prop-2-en-1-one] are more than 100 µM, 38.55 ± 0.06 µM and 41.6 ± 0.73 µM.
The matching figures for `CC(C)Oc1[nH]c2ccccc2c1/C=C/C(=O)c1ccccc1F` [ZKCH-11E, (2E)-1-(2-fluorophenyl)-3-[2-(propan-2-yloxy)-1H-indol-3-yl]prop-2-en-1-one]: 44.7 ± 4.96 µM, 33.8 ± 2.14 µM and 37.3 ± 2.28 µM.
The matching figures for `CCCCOc1[nH]c2ccccc2c1/C=C/C(=O)c1ccccc1F` [ZKCH-11F, (2E)-3-(2-butoxy-1H-indol-3-yl)-1-(2-fluorophenyl)prop-2-en-1-one]: more than 100 µM, 47.7 ± 1.49 µM and 45.8 ± 2.54 µM.
In the case of `CC(C)COc1[nH]c2ccccc2c1/C=C/C(=O)c1ccccc1F` [ZKCH-11G, (2E)-1-(2-fluorophenyl)-3-[2-(2-methylpropoxy)-1H-indol-3-yl]prop-2-en-1-one], the half-inhibitory concentration (IC50) is 51.3 ± 3.94 µM in the assay on MCF-10A, 39.5 ± 3.9 µM in the assay with BLM and 40 ± 1.37 µM with A2058.
The matching figures for `O=C(/C=C/c1c[nH]c2ccccc12)c1ccccc1F` [ZKCH-11H, (2E)-1-(2-fluorophenyl)-3-(1H-indol-3-yl)prop-2-en-1-one]: 60.7 ± 3.09 µM, 40.9 ± 2.62 µM and 42.4 ± 2.98 µM.
